Publication PMC7663979, “Design of Novel 4-Aminobenzofuroxans and Evaluation of Their Antimicrobial and Anticancer Activity” (International Journal of Molecular Sciences, 2020)
Several values for one entry are separate records, joined by “and”; a condition that tells them apart may be missing. Equal entries are not always repeated.

How the values were obtained:
[1] = tested on: Microdochium nivale isolate 21; experiment: Fungistatic activity, agar growth medium poison technique, isolate 21; format: cell-based; details: 1 mM in PSA; for inhibition at 1000 µM: Microdochium nivale
Protocol: (§1) Fungistatic activity of the tested compounds was assessed in vitro using agar growth medium poison technique. The target compounds as well as widely used fungicides benzimidazole and carbendazim were dissolved to 10 mM concentration in 20% Tween 20. The obtained solutions were added 1:9 v/v (giving 1 mM-concentrations of the target compounds) to potato-sucrose agar (PSA) at 60 °C, mixed thoroughly and transferred to Petri dishes. For the control variants, PSA was supplemented with 20% Tween 20 (9:1). Fungistatic effect was tested against two isolates of Microdochium nivale causing snow mold disease of winter cereals (rye) from the culture collection of FRC Kazan Scientific Center of RAS. […] The center of each solidified medium was inoculated upside-down with 5-mm diameter mycelial plug cut from the periphery of 10-day-old cultures. The tested dishes were incubated at 20 °C. The percentage growth inhibition was calculated using Abbott’s formula (1):%Inhibition = [(A − B) ÷ A] × 100(1) where ‘A’ is mycelia growth in the control conditions and ‘B’ is mycelia growth in the treatment conditions. The assay was performed at least in triplicate. Linear growth of each colony was determined during 6 days.

[2] = tested on: Microdochium nivale isolate 1; experiment: Fungistatic activity, agar growth medium poison technique, isolate 1; format: cell-based; details: 1 mM in PSA; for inhibition at 1000 µM: Microdochium nivale; for inhibition at 1000 µM / growth inhibition: 20 °C
Protocol: as §1

PANC-1 = experiment: Cytotoxicity assay (Cytell Cell Viability BioApp), PANC-1; format: cell-based, human; details: for IC50: Homo sapiens, PANC-1, mean ± SD, three experiments; for SI PANC-1: selectivity index = IC50 normal cells (Chang liver) / IC50 cancer cells, n.s. = no selectivity
MCF7 = experiment: Cytotoxicity assay (Cytell Cell Viability BioApp), MCF7; format: cell-based, human; details: for IC50: Homo sapiens, MCF7, mean ± SD, three experiments; for SI MCF7: selectivity index = IC50 normal cells (Chang liver) / IC50 cancer cells, n.s. = no selectivity
T98G = experiment: cells; format: cell-based, human; details: for IC50: Homo sapiens, T98G, read-out: IC50 T98G; for SI T98G: selectivity index = IC50 normal cells (Chang liver) / IC50 cancer cells, n.s. = no selectivity
Chang Liver = experiment: Cytotoxicity assay (Cytell Cell Viability BioApp), normal Chang liver cells; format: cell-based; details: Homo sapiens, mean ± SD, three experiments, read-out: IC50 Chang Liver (normal cell line)
M-HeLa = experiment: Cytotoxicity assay (Cytell Cell Viability BioApp), M-HeLa; format: cell-based, human; details: for IC50: Homo sapiens, M-HeLa, mean ± SD, three experiments; for SI M-HeLa: selectivity index = IC50 normal cells (Chang liver) / IC50 cancer cells, n.s. = no selectivity
M-HeLa cells [3] = experiment: Cell cycle analysis, propidium iodide, flow cytometry; format: cell-based, human; details: 24 h, control cells 34.28%
Protocol: (§2) Cell Culture. M-HeLa cells at 10^6 cells/ well in a final volume of 2 mL were seeded into 6-well plates. After 24 h of incubation, various concentrations of compounds 3c and 3f were added to wells.
The DNA content and cell-cycle distribution after […] were estimated by flow cytometry. Cell seeding, drug treatment and ethanol fixation were similar to cell proliferation assay. After washing with PBS, […] were suspended in 150 μL of PBS, then 0.5 mL phosphate-citrate buffer (0.05 M, pH = 4.0) was added and the suspension was incubated at room temperature for 5 min to facilitate the extraction of low molecular weight DNA. Following centrifugation the cells were resuspended in 150 μL DNA staining solution (20 μg/mL propidium iodide, 200 μg/mL […], and 0.1% Triton X-100) and incubated in the CO2 incubator (37 °C for 30 min). Cell cycle distribution was determined by fluorescence-activated cell sorting analysis of propidium iodide-stained ethanol-fixed cells using a Guava EasyCyte (Guava easyCyte, MERCK, Kenilworth, NJ, USA).

M-HeLa cells [4] = experiment: Cell apoptosis analysis by flow cytometry (annexin V-Alexa Fluor 647 / propidium iodide); format: cell-based, human; details: 24 h
Protocol: as §2
Cell Apoptosis Analysis. The cells were harvested at 2000 rpm for 5 min and, then, washed twice with ice-cold PBS, followed by resuspension in binding buffer 100 μL. Next, the samples were incubated with 0.35 μL of annexin V-Alexa Fluor 647 and 0.1 μL of propidium iodide for 40 min at room temperature in the dark. Finally, the cells were analyzed by flow cytometry (Guava easyCyte, MERCK, Kenilworth, NJ, USA). The experiments were repeated three times.

| SMILES | IC50 (PANC-1) | SI PANC-1 (PANC-1) | IC50 (MCF7) | SI MCF7 (MCF7) | IC50 (T98G) | SI T98G (T98G) | IC50 (Chang Liver) | IC50 (M-HeLa) | SI M-HeLa (M-HeLa) | other results |
| --- | --- | --- | --- | --- | --- | --- | --- | --- | --- | --- |
| O=[N+]([O-])c1c(Cl)cc2c(no[n+]2[O-])c1Cl [4,6-dichloro-5-nitrobenzofuroxan, reference compound] |  |  |  |  |  |  |  |  |  | fungistatic activity (result in words) [1]: not effective; fungistatic activity (result in words) [2]: not effective |
| O=[N+]([O-])c1c(Cl)cc2c(no[n+]2[O-])c1Nc1ccc(F)cc1 [Compound 3a, 6-chloro-4-((4-fluorophenyl)amino)-5-nitrobenzofuroxan] | > 100 µM | n.s | > 100 µM | n.s. | 28.3 ± 2.3 µM | 3.3 | 93.8 ± 8.3 µM | 45.9 ± 3.7 µM | 2.0 |  |
| O=[N+]([O-])c1c(Cl)cc2c(no[n+]2[O-])c1Nc1ccc(Cl)cc1 [Compound 3b, 6-chloro-4-((4-chlorophenyl)amino)-5-nitrobenzofuroxan] | 82.7 ± 7.3 µM | n.s | 69.2 ± 5.7 µM | n.s. | 12.7 ± 1.1 µM | 5.0 | 62.7 ± 5.5 µM | 60.6 ± 4.7 µM | 1.0 | inhibition at 1000 µM ([1]; fifth day of incubation, 20 °C): > 40%; inhibition at 1000 µM ([1]; sixth day of incubation, 20 °C): > 25%; inhibition at 1000 µM ([2]; fifth day of incubation): > 40%; inhibition at 1000 µM ([2]; sixth day of incubation): > 25% |
| O=[N+]([O-])c1c(Cl)cc2c(no[n+]2[O-])c1Nc1ccc(Br)cc1 [Compound 3c, 4-((4-bromophenyl)amino)-6-chloro-5-nitrobenzofuroxan] | 59.2 ± 4.6 µM | 1.0 | 3.7 ± 0.2 µM | 16.6 | 20.4 ± 1.7 µM | 3 | 61.3 ± 5.1 µM | 4.8 ± 0.4 µM | 12.8 | inhibition at 1000 µM ([1]; fifth day of incubation, 20 °C): > 40%; inhibition at 1000 µM ([1]; sixth day of incubation, 20 °C): > 25%; cells in G0/G1 phase (G1) (M-HeLa cells [3]; 5 μM): 62.9% and 62.91%; cells in G0/G1 phase (G1) (M-HeLa cells [3]; 10 μM): 70.1% and 70.06%; inhibition at 1000 µM ([2]; fifth day of incubation): > 40%; inhibition at 1000 µM ([2]; sixth day of incubation): > 25%; D—dead cells (M-HeLa cells [4]; 5 μM): 3.92%; Ea—early apoptotic cells (M-HeLa cells [4]; 5 μM): 6.67%; La—late apoptotic cells (M-HeLa cells [4]; 5 μM): 8.63%; L—living cells (M-HeLa cells [4]; 5 μM): 80.78%; D—dead cells (M-HeLa cells [4]; 10 μM): 6.16%; Ea—early apoptotic cells (M-HeLa cells [4]; 10 μM): 17.33%; La—late apoptotic cells (M-HeLa cells [4]; 10 μM): 15.69%; L—living cells (M-HeLa cells [4]; 10 μM): 60.82% |
| N#Cc1ccc(Nc2c([N+](=O)[O-])c(Cl)cc3c2no[n+]3[O-])cc1 [Compound 3d, 6-chloro-4-((4-cyanophenyl)amino)-5-nitrobenzofuroxan] | 61.3 ± 5.1 µM | >1.6 | 67.9 ± 5.7 µM | >1.5 | 14.7 ± 1.2 µM | >6.8 | > 100 µM | 16.6 ± 1.4 µM | >6 |  |
| COc1ccccc1Nc1c([N+](=O)[O-])c(Cl)cc2c1no[n+]2[O-] [Compound 3e, 6-chloro-4-((2-methoxyphenyl)amino)-5-nitrobenzofuroxan] | 50 ± 4.1 µM | 1.3 | 79.5 ± 6.4 µM | n.s. | 21.5 ± 1.8 µM | 3.0 | 62.7 ± 5.6 µM | 62.7 ± 5.4 µM | 1.0 | fungistatic activity (result in words) [1]: one of the most pronounced inhibitory effects; fungistatic activity (result in words) [2]: inefficient |
| CCCCNc1c([N+](=O)[O-])c(Cl)cc2c1no[n+]2[O-] [Compound 5a, 4-(butylamino)-6-chloro-5-nitrobenzofuroxan] | > 100 µM | n.s. | > 100 µM | n.s. | 22.7 ± 1.9 µM | 4.4 | 100 µM | 56.5 ± 4.5 µM | 1.8 | growth inhibition ([1]; sixth day of incubation, 20 °C): did not cause any inhibition; inhibition at 1000 µM ([1]; fifth day of incubation, 20 °C): 10%; fungistatic activity (result in words) [2]: one of the most effective |
| CCCCCCNc1c([N+](=O)[O-])c(Cl)cc2c1no[n+]2[O-] [Compound 5b, 6-chloro-4-(hexylamino)-5-nitrobenzofuroxan] | 50 ± 3.9 µM | >2 | > 100 µM | n.s. | 65 ± 5.8 µM | >1.5 | > 100 µM | 60.8 ± 4.8 µM | >1.6 |  |
| O=[N+]([O-])c1c(Cl)cc2c(no[n+]2[O-])c1NC1CCCCC1 [Compound 5d, 6-chloro-4-(cyclohexylamino)-5-nitrobenzofuroxan] | > 100 µM | n.s. | 79.1 ± 6.2 µM | n.s. | 31.6 ± 2.5 µM | 2.1 | 67.1 ± 5.7 µM | 61 ± 5.2 µM | 1.1 |  |
| O=[N+]([O-])c1c(Cl)cc2c(no[n+]2[O-])c1NN1CCOCC1 [Compound 5e, 6-chloro-4-(morpholinoamino)-5-nitrobenzofuroxan] | > 100 µM | n.s. | > 100 µM | n.s. | 57.1 ± 4.3 µM | 1.1 | 65.2 ± 5.8 µM | 61.6 ± 5.2 µM | 1.1 |  |
| CN(Cc1ccccc1)c1c([N+](=O)[O-])c(Cl)cc2c1no[n+]2[O-] [Compound 5f, 4-(benzyl(methyl)amino)-6-chloro-5-nitrobenzofuroxan] | > 100 µM | n.s. | > 100 µM | n.s. | > 100 µM | n.s. | > 100 µM | 62.2 ± 5.6 µM | >1.6 | inhibition at 1000 µM ([1]; fifth day of incubation, 20 °C): < 20%; inhibition at 1000 µM ([1]; sixth day of incubation, 20 °C): < 10%; inhibition at 1000 µM ([2]; fifth day of incubation): < 20%; inhibition at 1000 µM ([2]; sixth day of incubation): < 10% |
| COc1cccc2c1C(=O)c1c(O)c3c(c(O)c1C2=O)C[C@@](O)(C(=O)CO)C[C@@H]3O[C@H]1C[C@H](N)[C@H](O)[C@H](C)O1 [Doxorubicin, reference compound] | 3.3 ± 0.1 µM | 1.0 | 3 ± 0.2 µM | 1.0 | 6.8 ± 0.5 µM | n.s. | 3 ± 0.2 µM | 3 ± 0.1 µM | 1.0 |  |
| c1ccc2[nH]cnc2c1 [benzimidazole, reference compound] |  |  |  |  |  |  |  |  |  | growth inhibition ([2]; fifth day of incubation): null inhibitory effect |
| COC(=O)Nc1nc2ccccc2[nH]1 [carbendazim, methyl-2-benzimidazole carbamate, reference compound] |  |  |  |  |  |  |  |  |  | inhibition at 1000 µM ([1]; sixth day of incubation, 20 °C): 100%; growth inhibition ([2]; fifth day of incubation): null inhibitory effect |
